The record followed here is US20210317092A1 (BAYER PHARMA AKTIENGESELLSCHAFT, priority 2016, published 2021).

Read-outs that look alike come from different tables or passages of the source.

Test [1] concerns the target T1, human Bradykinin B1 receptor (Homo sapiens, UniProt P46663).
T1 construct: host or cells: CHO-K1
T1 sequence (P46663 1-353): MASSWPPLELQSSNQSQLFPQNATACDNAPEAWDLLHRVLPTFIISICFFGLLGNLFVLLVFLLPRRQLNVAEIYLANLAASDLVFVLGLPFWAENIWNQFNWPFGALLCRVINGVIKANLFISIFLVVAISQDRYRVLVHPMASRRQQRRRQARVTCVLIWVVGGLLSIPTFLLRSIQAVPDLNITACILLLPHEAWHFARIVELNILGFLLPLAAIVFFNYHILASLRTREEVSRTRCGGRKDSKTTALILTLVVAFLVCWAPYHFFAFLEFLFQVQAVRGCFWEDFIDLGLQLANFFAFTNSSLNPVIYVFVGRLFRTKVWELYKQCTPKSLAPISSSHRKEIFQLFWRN
In words: Calcium flux Assay (FLIPR) with recombinant CHO-K1 cells expressing human Bradykinin B1 receptor, in presence (hB1 IC50) or absence (hB1 free IC50) of 0.1% BSA. It is filed as cell-based. For orientation: Calcium flux is commonly read through the fluorescence of an indicator in the cells.

Test [2] concerns the target T2, native human Bradykinin B1 receptor (Homo sapiens, UniProt P46663).
T2 construct: which express native human Bradykinin B1 receptor after induction with human IL-10; Coriell Institute; host or cells: IMR-90 human foetal lung fibroblasts, cytokine-induced
T2 sequence (P46663 1-353): T1 sequence (P46663 1-353)
In words: Calcium flux Assay (FLIPR) with human fibroblasts expressing Bradykinin B1 receptor (hB1 IMR-90). The settings on record: IMR-90 human fibroblasts expressing native Bradykinin B1 receptor. It is filed as cell-based. In short, it runs like this:
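IMR-90 human foetal lung fibroblasts induced with 0.35 ng/mL […] for 3 h, Fluo-4/AM-loaded, preincubated with compound (8 concentrations, triplicate) for 30 min at 28 °C, then challenged with Lys-(Des-Arg)-bradykinin at EC90. Ca2+ fluorescence was read at 538 nm; full inhibition set by 20 µM Lys-(Des-Arg-Leu)-bradykinin; IC50 derived.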

[3] abbreviates: in absence of 0.1% BSA, read-out: hB1 free IC50.
[4] abbreviates: in presence of 0.1% BSA, read-out: hB1 IC50.

By IC50 is commonly meant the concentration that inhibits the measured activity by half. As for `COCc1ccc(-c2ccc(NC(=O)C3(c4ccc(F)cc4F)CC3)cc2-c2nnn[nH]2)cn1` [Example 127, 1-(2,4-difluorophenyl)-N-{4-[6-(methoxymethyl)pyridin-3-yl]-3-(1H-tetrazol-5-yl)phenyl} cyclopropane-carboxamide], the results for the half-maximal inhibitory concentration (IC50) in test [1] (setting [3]), in test [1] (setting [4]) and in test [2] were 0.0886 µM, 0.0909 µM and 0.0279 µM, respectively.
The like results for `O=C(Nc1ccc(-c2ccc(C(F)(F)F)cc2)c(-c2nnn[nH]2)c1)C1(c2cccc(Cl)c2)CC1` [Example 128, 1-(3-chlorophenyl)-N-[2-(1H-tetrazol-5-yl)-4′-(trifluoromethyl)biphenyl-4-yl]cyclopropane carboxamide] were, in that order, 0.00268 µM, 0.137 µM and 0.0633 µM.
The corresponding values for `O=C(Nc1ccc(-c2ccc(C(F)(F)F)nc2)c(-c2nnn[nH]2)c1)C1(c2cccc(Cl)c2)CC1` [Example 135, 1-(3-chlorophenyl)-N-{3-(1H-tetrazol-5-yl)-4-[6-(trifluoromethyl)pyridin-3-yl]phenyl} cyclopropane-carboxamide] are 0.0587 µM, 0.516 µM and 0.0918 µM.
Consider `O=C(Nc1ccc(-c2ccc(C(F)(F)F)nc2)c(-c2nnn[nH]2)c1)C1(c2ccc(OC(F)(F)F)cc2)CC1` [Example 136, N-{3-(1H-tetrazol-5-yl)-4-[6-(trifluoromethyl)pyridin-3-yl]phenyl}-1-[4-(trifluoromethoxy)phenyl] cyclopropane-carboxamide], for which the IC50 in test [1] (setting [3]) is 0.165 µM; in test [2], 0.0157 µM.
The like results for `O=C(Nc1ccc(-c2ccc(C(F)(F)F)nc2)c(-c2nnn[nH]2)c1)C1(c2ccc(Cl)c(F)c2)CC1` [Example 137, 1-(4-Chloro-3-fluorophenyl)-N-{3-(1H-tetrazol-5-yl)-4-[6-(trifluoromethyl)pyridin-3-yl]phenyl} cyclopropane-carboxamide] were, in that order, 0.0171 µM and 0.0439 µM.
The like results for `O=C(Nc1ccc(-c2ccc(C(F)(F)F)nc2)c(-c2nnn[nH]2)c1)C1(c2cccc(Cl)c2F)CC1` [Example 138, 1-(3-chloro-2-fluorophenyl)-N-{3-(1H-tetrazol-5-yl)-4-[6-(trifluoromethyl)pyridin-3-yl]phenyl} cyclopropane-carboxamide] were, in that order, 0.0513 µM and 0.102 µM.
The corresponding values for `O=C(Nc1ccc(-c2ccc(C(F)(F)F)nc2)c(-c2nnn[nH]2)c1)C1(c2ccc(F)c(Cl)c2)CC1` [Example 139, 1-(3-chloro-4-fluorophenyl)-N-{3-(1H-tetrazol-5-yl)-4-[6-(trifluoromethyl)pyridin-3-yl]phenyl} cyclopropane-carboxamide] are 0.0226 µM and 0.091 µM.
Take `O=C(Nc1ccc(-c2ccc(C(F)(F)F)nc2)c(-c2nnn[nH]2)c1)C1(c2ccc(C(F)(F)F)cc2)CC1` [Example 140, N-{3-(1H-tetrazol-5-yl)-4-[6-(trifluoromethyl)pyridin-3-yl]phenyl}-1-[4-(trifluoromethyl)phenyl] cyclopropane-carboxamide]: the figures for the IC50 in test [1] (setting [3]) and in test [2] were 0.0421 µM and 0.0851 µM, respectively.
The corresponding values for `O=C(Nc1ccc(-c2ccc(C(F)(F)F)nc2)c(-c2nnn[nH]2)c1)C1(c2cc(F)ccc2F)CC1` [Example 141, 1-(2,5-difluorophenyl)-N-{3-(1H-tetrazol-5-yl)-4-[6-(trifluoromethyl)pyridin-3-yl]phenyl} cyclopropane-carboxamide] are 0.224 µM and 0.141 µM.
The like results for `O=C(Nc1ccc(-c2ccc(C(F)(F)F)nc2)c(-c2nnn[nH]2)c1)C1(c2cccc(C(F)(F)F)c2)CC1` [Example 144, N-{3-(1H-tetrazol-5-yl)-4-[6-(trifluoromethyl)pyridin-3-yl]phenyl}-1-[3-(trifluoromethyl)phenyl] cyclopropane-carboxamide] were, in that order, 0.3 µM and 0.289 µM.
`COc1cc(-c2ccc(NC(=O)C3(c4ccc(C(F)(F)F)cc4F)CC3)cc2-c2nnn[nH]2)cnc1C(F)(F)F` [Example 147, 1-[2-fluoro-4-(trifluoromethyl)phenyl]-N-{4-[5-methoxy-6-(trifluoromethyl)pyridin-3-yl]-3-(1H-tetrazol-5-yl)phenyl} cyclopropane-carboxamide]: the IC50 came out at 0.0353 µM in test [1] (setting [3]) and 0.0363 µM in test [2].
In the case of `CC(C)Oc1ccc(-c2ccc(NC(=O)C3(c4cccc(Cl)c4)CC3)cc2-c2nnn[nH]2)cn1` [Example 148, 1-(3-chlorophenyl)-N-[4-(6-isopropoxy-pyridin-3-yl)-3-(1H-tetrazol-5-yl)phenyl] cyclopropane-carboxamide], the IC50 in test [1] (setting [3]) turned out to be 0.00194 µM; in test [1] (setting [4]), 0.02 µM; in test [2] it was 0.0185 µM.
The corresponding values for `CC(C)Oc1ccc(-c2ccc(NC(=O)C3(c4ccc(C(F)(F)F)cc4)CC3)cc2-c2nnn[nH]2)cn1` [Example 149, N-[4-(6-isopropoxy-pyridin-3-yl)-3-(1H-tetrazol-5-yl)phenyl]-1-[4-(trifluoromethyl)phenyl] cyclopropane-carboxamide] are 0.00635 µM, 0.0144 µM and 0.0118 µM.
The corresponding values for `COc1cncc(-c2ccc(NC(=O)C3(c4cccc(Cl)c4)CC3)cc2-c2nnn[nH]2)c1` [Example 153, 1-(3-chlorophenyl)-N-[4-(5-methoxypyridin-3-yl)-3-(1H-tetrazol-5-yl)phenyl] cyclopropane-carboxamide] are 0.00364 µM, 0.0262 µM and 0.0186 µM.
As for `CCOc1cncc(-c2ccc(NC(=O)C3(c4ccc(C(F)(F)F)cc4)CC3)cc2-c2nnn[nH]2)c1` [Example 156, N-[4-(5-ethoxypyridin-3-yl)-3-(1H-tetrazol-5-yl)phenyl]-1-[4-(trifluoromethyl)phenyl] cyclopropane-carboxamide], the values for the IC50 in test [1] (setting [3]), in test [1] (setting [4]) and in test [2] were 0.0366 µM, 0.0275 µM and 0.0846 µM, respectively.
The corresponding values for `CCOc1ncc(-c2ccc(NC(=O)C3(c4cccc(Cl)c4)CC3)cc2-c2nnn[nH]2)cc1C` [Example 160, 1-(3-chlorophenyl)-N-[4-(6-ethoxy-5-methylpyridin-3-yl)-3-(1H-tetrazol-5-yl)phenyl] cyclopropane-carboxamide] are 0.00813 µM, 0.0477 µM and 0.0267 µM.
Regarding `CCOc1ncc(-c2ccc(NC(=O)C3(c4cccc(Cl)c4)CC3)cc2-c2nnn[nH]2)cc1F` [Example 163, 1-(3-chlorophenyl)-N-[4-(6-ethoxy-5-fluoropyridin-3-yl)-3-(1H-tetrazol-5-yl)phenyl] cyclopropane-carboxamide], the half-inhibitory concentration (IC50) was determined as 0.0142 µM in test [1] (setting [3]), 0.0281 µM in test [1] (setting [4]) and 0.0289 µM in test [2].
For the molecule `CN(C)c1ccc(-c2ccc(NC(=O)C3(c4cccc(Cl)c4F)CC3)cc2-c2nnn[nH]2)cn1` [Example 168, 1-(3-chloro-2-fluorophenyl)-N-{4-[6-(dimethylamino)pyridin-3-yl]-3-(1H-tetrazol-5-yl)phenyl} cyclopropane-carboxamide], the IC50 was determined as 0.0586 µM in test [1] (setting [3]), 0.0881 µM in test [1] (setting [4]) and 0.0277 µM in test [2].
The like results for `O=C(Nc1ccc(-c2ccnc(C(F)(F)F)c2)c(-c2nnn[nH]2)c1)C1(c2cccc(Cl)c2)CC1` [Example 171, 1-(3-chlorophenyl)-N-{3-(1H-tetrazol-5-yl)-4-[2-(trifluoromethyl)pyridin-4-yl]phenyl} cyclopropane-carboxamide] were, in that order, 0.422 µM, 0.358 µM and 0.281 µM.
Turning to `O=C(Nc1ccc(-c2ccnc(C(F)(F)F)c2)c(-c2nnn[nH]2)c1)C1(c2ccc(C(F)(F)F)cc2F)CC1` [Example 173, 1-[2-fluoro-4-(trifluoromethyl)phenyl]-N-{3-(1H-tetrazol-5-yl)-4-[2-(trifluoromethyl)pyridin-4-yl]phenyl} cyclopropane-carboxamide], the IC50 in test [1] (setting [3]) was found to be 0.0865 µM; in test [2], 0.0924 µM.
The like results for `O=C(Nc1ccc(-c2ccnc(C(F)(F)F)c2)c(-c2nnn[nH]2)c1)C1(c2ccc(Cl)cc2F)CC1` [Example 175, 1-(4-chloro-2-fluorophenyl)-N-{3-(1H-tetrazol-5-yl)-4-[2-(trifluoromethyl)pyridin-4-yl]phenyl} cyclopropane-carboxamide] were, in that order, 0.216 µM and 0.687 µM.
As for `CCc1cc(-c2ccc(NC(=O)C3(c4cccc(Cl)c4)CC3)cc2-c2nnn[nH]2)ccn1` [Example 181, 1-(3-chlorophenyl)-N-[4-(2-ethylpyridin-4-yl)-3-(1H-tetrazol-5-yl)phenyl] cyclopropane-carboxamide], the IC50 in test [1] (setting [3]) was found to be 0.0208 µM; in test [1] (setting [4]) it was 0.0148 µM; in test [2] it was 0.00729 µM.
The like results for `CCOc1ncc(-c2ccc(NC(=O)C3(c4cccc(Cl)c4F)CC3)cc2-c2nnn[nH]2)cn1` [Example 183, 1-(3-chloro-2-fluorophenyl)-N-[4-(2-ethoxypyrimidin-5-yl)-3-(1H-tetrazol-5-yl)phenyl] cyclopropane-carboxamide] were, in that order, 0.0544 µM, 0.033 µM and 0.0111 µM.
